Reference: patent publication US7951802B2, “Use of 7-azaindoles in the inhibition of c-Jun N-terminal kinase” (Eisai R&D Management Co., Ltd., priority 2007, dated 2011)

Biological target: JNK3 (Homo sapiens, UniProt P53779)
Test: JNK3 SPA assay (phosphorylation of GST-c-Jun)
Type: biochemical
Settings: 3.33 μM ATP, GST-c-Jun substrate, read-out: IC50 against JNK3
Description: JNK1, JNK2, JNK3—SPA Assay
JNK1, JNK2, JNK3—SPA Assay • 1. Compound is dissolved in DMSO to a convenient concentration and this is diluted in 10% DMSO to a five times concentrate of the desired starting concentration (frequently 1:100). • 2. 10 μl of 500 mM EDTA is added to alternative wells of the Opti-plate row, which will receive kinase reaction plus DMSO. This creates the negative control. • 3. For the JNK2 and JNK3 assay, compounds are prepared in six 2-fold dilutions with water and each concentration is tested in duplicate. For the JNK1 assay compounds are prepared in four 5-fold dilutions with water which are tested in triplicate. Controls are treated identically. • 4. 20 μl per well of each compound concentration is transferred to an Opti-plate, in duplicate. • 5. 30 μl (JNK2/3 SPA) or 50 μl (JNK1 SPA) of substrate solution (25 mM HEPES pH 7.5, 10 mM magnesium acetate with 3.33 μM ATP (JNK2/3) or 2 μM ATP (JNK1), approximately 7.5 kBq [γ-^33P] ATP, GST-c-Jun, in water) is added to each well. • 6. 50 μl (JNK2/3 SPA) or 30 μl (JNK1 SPA) of kinase solution (JNK in 25 mM HEPES pH 7.5, 10 mM Mg Acetate) is added to each well.
• 7. The plate is incubated for 30 minutes at room temperature. • 8. 100 μl of bead/stop solution is added to each well (5 mg/ml glutathione-PVT-SPA beads, 40 mM ATP in PBS). • 9. Plates are sealed and incubated for 30 minutes at room temperature, centrifuged for 10 minutes at 2500 g and counted. • 10. The IC50 values are calculated as the concentration of the compound being tested at which the phosphorylation of c-Jun is decreased to 50% of the control value.

Chain of JNK3 (P53779 whole entry, species assumed): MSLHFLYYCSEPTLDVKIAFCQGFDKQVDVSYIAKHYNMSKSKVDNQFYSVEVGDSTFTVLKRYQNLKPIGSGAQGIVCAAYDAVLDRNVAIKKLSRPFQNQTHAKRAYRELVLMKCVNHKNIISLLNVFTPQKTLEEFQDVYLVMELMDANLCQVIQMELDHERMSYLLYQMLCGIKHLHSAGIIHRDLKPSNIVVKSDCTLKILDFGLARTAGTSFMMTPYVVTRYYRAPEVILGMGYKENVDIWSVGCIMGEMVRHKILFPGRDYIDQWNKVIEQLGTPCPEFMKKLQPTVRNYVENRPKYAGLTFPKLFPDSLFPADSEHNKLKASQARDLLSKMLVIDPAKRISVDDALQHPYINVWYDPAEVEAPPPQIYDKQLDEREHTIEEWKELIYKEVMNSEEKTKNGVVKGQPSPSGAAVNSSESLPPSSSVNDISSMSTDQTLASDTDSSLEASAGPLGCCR

| IC50 [nM] | SMILES |
| --- | --- |
| 434 | CN1CCC(c2nc(-c3c[nH]c4ncc(C5=CCCC5)cc34)cs2)CC1 [Compound I-1, 5-Cyclopent-1-enyl-3-[2-(1-methyl-piperidin-4-yl)-thiazol-4-yl]-1H-pyrrolo[2,3-b]pyridine] |
| 38 | O=C(c1nc(-c2c[nH]c3ncc(C4=CCCC4)cc23)cs1)N1CCOCC1 [Compound I-3, [4-(5-Cyclopent-1-enyl-1H-pyrrolo[2,3-b]pyridin-3-yl)-thiazol-2-yl]-morpholin-4-yl-methanone] |
| 251 | O=C(c1nc(-c2c[nH]c3ncc(C4=CCCC4)cc23)cs1)N1CCCCC1 [Compound I-4, [4-(5-Cyclopent-1-enyl-1H-pyrrolo[2,3-b]pyridin-3-yl)-thiazol-2-yl]-piperidin-1-yl-methanone] |
| 86 | CN1CCN(C(=O)c2nc(-c3c[nH]c4ncc(C5=CCCC5)cc34)cs2)CC1 [Compound I-5, [4-(5-Cyclopent-1-enyl-1H-pyrrolo[2,3-b]pyridin-3-yl)-thiazol-2-yl]-(4-methyl-piperazin-1-yl)-methanone] |
| 238 | O=C(c1nc(-c2c[nH]c3ncc(C4CCCCC4)cc23)cs1)N1CCCCC1 [Compound I-7, [4-(5-Cyclohexyl-1H-pyrrolo[2,3-b]pyridin-3-yl)-thiazol-2-yl]-piperidin-1-yl-methanone] |
| 111 | O=C(c1nc(-c2c[nH]c3ncc(C4CCCCC4)cc23)cs1)N1CCOCC1 [Compound I-8, [4-(5-Cyclohexyl-1H-pyrrolo[2,3-b]pyridin-3-yl)-thiazol-2-yl]-morpholin-4-yl-methanone] |
| 147 | CN(C)C(=O)c1nc(-c2c[nH]c3ncc(C4CCCCC4)cc23)cs1 [Compound I-9, 4-[5-cyclohexyl-1H-pyrrolo[2,3-b]pyridin-3-yl]-thiazole-2-carboxylic acid dimethylamide] |
| 63 | CN1CCN(C(=O)c2nc(-c3c[nH]c4ncc(C5CCCCC5)cc34)cs2)CC1 [Compound I-10, [4-(5-Cyclohexyl-1H-pyrrolo[2,3-b]pyridin-3-yl)-thiazol-2-yl]-(4-methyl-piperazin-1-yl)-methanone] |
| 240 | CN1CCC(c2nc(-c3c[nH]c4ncc(C5CCCCC5)cc34)cs2)CC1 [Compound I-11, 5-Cyclohexyl-3-[2-(1-methyl-piperidin-4-yl)-thiazol-4-yl]-1H-pyrrolo[2,3-b]pyridine] |
| 151 | CC1CC=C(c2cnc3[nH]cc(-c4csc(C(=O)N5CCOCC5)n4)c3c2)CC1 (stereo not drawn) [Compound I-13, {4-[5-(4-Methyl-cyclohex-1-enyl)-1H-pyrrolo[2,3-b]pyridin-3-yl]-thiazol-2-yl}-morpholin-4-yl-methanone] |
| 105 | CC1CC=C(c2cnc3[nH]cc(-c4csc(C(=O)N5CCN(C)CC5)n4)c3c2)CC1 (stereo not drawn) [Compound I-14, {4-[5-(4-Methyl-cyclohex-1-enyl)-1H-pyrrolo[2,3-b]pyridin-3-yl]-thiazol-2-yl}-(4-methyl-piperazin-1-yl)-methanone] |
| 395 | CC1(C)C=CC(c2cnc3[nH]cc(-c4csc(C(=O)N5CCOCC5)n4)c3c2)=CC1 [Compound I-16, {4-[5-(4,4-Dimethyl-cyclohexa-1,5-dienyl)-1H-pyrrolo[2,3-b]pyridin-3-yl]-thiazol-2-yl}-morpholin-4-yl-methanone] |
| 40 | CN1CCN(C(=O)c2nc(-c3c[nH]c4ncc(C5=CCC(C)(C)C=C5)cc34)cs2)CC1 [Compound I-17, {4-[5-(4,4-Dimethyl-cyclohexa-1,5-dienyl)-1H-pyrrolo[2,3-b]pyridin-3-yl]-thiazol-2-yl}-(4-methyl-piperazin-1-yl)-methanone] |
| 117 | CC1CCC(c2cnc3[nH]cc(-c4csc(C(=O)N(C)C)n4)c3c2)CC1 (stereo not drawn) [Compound I-19, 4-[5-(4-Methyl-cyclohexyl)-1H-pyrrolo[2,3-b]pyridin-3-yl]-thiazole-2-carboxylic acid dimethylamide] |
| 138 | CC1CCC(c2cnc3[nH]cc(-c4csc(C(=O)N5CCCCC5)n4)c3c2)CC1 (stereo not drawn) [Compound I-20, {4-[5-(4-Methyl-cyclohexyl)-1H-pyrrolo[2,3-b]pyridin-3-yl]-thiazol-2-yl}-piperidin-1-yl-methanone] |
| 123 | CC1CCC(c2cnc3[nH]cc(-c4csc(C(=O)N5CCOCC5)n4)c3c2)CC1 (stereo not drawn) [Compound I-21, {4-[5-(4-Methyl-cyclohexyl)-1H-pyrrolo[2,3-b]pyridin-3-yl]-thiazol-2-yl}-morpholin-4-yl-methanone] |
| 16 | CC1CCC(c2cnc3[nH]cc(-c4csc(C(=O)N5CCN(C)CC5)n4)c3c2)CC1 (stereo not drawn) [Compound I-22, {4-[5-(4-Methyl-cyclohexyl)-1H-pyrrolo[2,3-b]pyridin-3-yl]-thiazol-2-yl}-(4-methyl-piperazin-1-yl)-methanone] |

| IC50 [nM] | SMILES |
| --- | --- |
| 724 | CN1CCC(c2nc(-c3c[nH]c4ncc(C5CCC6(CC5)OCCO6)cc34)cs2)CC1 [Compound I-23, 5-(1,4-Dioxa-spiro[4.5]dec-8-yl)-3-[2-(1-methyl-piperidin-4-yl)-thiazol-4-yl]-1H-pyrrolo[2,3-b]pyridine] |
| 229 | C1=C(c2cnc3[nH]cc(-c4nccs4)c3c2)CCCC1 [Compound I-24, 2-(5-cyclohexenyl-1H-pyrrolo[2,3-b]pyridin-3-yl)thiazole] |
| 16 | O=C(c1nc(-c2c[nH]c3ncc(C4CCC5(CC4)OCCO5)cc23)cs1)N1CCCCC1 [Compound I-25, {4-[5-(1,4-Dioxa-spiro[4.5]dec-8-yl)-1H-pyrrolo[2,3-b]pyridin-3-yl]-thiazol-2-yl}-piperidin-1-yl-methanone] |
| 324 | c1csc(-c2c[nH]c3ncc(C4CCCCC4)cc23)n1 [Compound I-26, 2-(5-cyclohexyl-1H-pyrrolo[2,3-b]pyridin-3-yl)thiazole] |
| 447 | CCC1CC=C(c2cnc3[nH]cc(-c4csc(C(=O)N5CCOCC5)n4)c3c2)CC1 (stereo not drawn) [Compound I-27, {4-[5-(4-Ethyl-cyclohex-1-enyl)-1H-pyrrolo[2,3-b]pyridin-3-yl]-thiazol-2-yl}-morpholin-4-yl-methanone] |
| 229 | O=C(c1nc(-c2c[nH]c3ncc([C@H]4CC[C@@H](N5CCOCC5)CC4)cc23)cs1)N1CCCCC1 [Compound I-30, (4-(5-((1r,4r)-4-morpholinocyclohexyl)-1H-pyrrolo[2,3-b]pyridin-3-yl)thiazol-2-yl)(piperidin-1-yl)methanone] |
| 1330 | O=C(c1nc(-c2c[nH]c3ncc([C@H]4CC[C@@H](N5CCOCC5)CC4)cc23)cs1)N1CCOCC1 [Compound I-31, morpholino(4-(5-((1s,4s)-4-morpholinocyclohexyl)-1H-pyrrolo[2,3-b]pyridin-3-yl)thiazol-2-yl)methanone] |
| 955 | CN1CCN(C(=O)c2nc(-c3c[nH]c4ncc([C@H]5CC[C@@H](N6CCOCC6)CC5)cc34)cs2)CC1 [Compound I-32, (4-methylpiperazin-1-yl)(4-(5-((1s,4s)-4-morpholinocyclohexyl)-1H-pyrrolo[2,3-b]pyridin-3-yl)thiazol-2-yl)methanone] |
| 198 | O=C(c1nc(-c2c[nH]c3ncc([C@H]4CC[C@H](N5CCOCC5)CC4)cc23)cs1)N1CCCCC1 [Compound I-33, (4-(5-((1r,4r)-4-morpholinocyclohexyl)-1H-pyrrolo[2,3-b]pyridin-3-yl)thiazol-2-yl)(piperidin-1-yl)methanone] |
| 162 | O=C(c1nc(-c2c[nH]c3ncc([C@H]4CC[C@H](N5CCOCC5)CC4)cc23)cs1)N1CCOCC1 [Compound I-34, morpholino(4-(5-((1r,4r)-4-morpholinocyclohexyl)-1H-pyrrolo[2,3-b]pyridin-3-yl)thiazol-2-yl)methanone] |
| 580 | c1ncc(-c2c[nH]c3ncc(C4CCCCC4)cc23)s1 [Compound I-48, 5-(5-cyclohexyl-1H-pyrrolo[2,3-b]pyridin-3-yl)thiazole] |
| 89 | c1nc(-c2c[nH]c3ncc(C4CCCCC4)cc23)cs1 [Compound I-49, 4-(5-cyclohexyl-1H-pyrrolo[2,3-b]pyridin-3-yl)thiazole] |
| 891 | COc1nc(-c2c[nH]c3ncc(C4CCCCC4)cc23)cs1 [Compound I-50, 4-(5-cyclohexyl-1H-pyrrolo[2,3-b]pyridin-3-yl)-2-methoxythiazole] |
| 933 | Cc1csc(-c2c[nH]c3ncc(C4CCCCC4)cc23)n1 [Compound I-51, 2-(5-cyclohexyl-1H-pyrrolo[2,3-b]pyridin-3-yl)-4-methylthiazole] |
| > 2000 | Cc1nc(-c2c[nH]c3ncc([C@H]4CC[C@@H](N5CCOCC5)CC4)cc23)cs1 [Compound I-56, 4-((1s,4s)-4-(3-(2-methylthiazol-4-yl)-1H-pyrrolo[2,3-b]pyridin-5-yl)cyclohexyl)morpholine] |
| > 2000 | Cc1nc(-c2c[nH]c3ncc(C4CCCCC4)cc23)cs1 [Compound I-58, 4-(5-cyclohexyl-1H-pyrrolo[2,3-b]pyridin-3-yl)-2-methylthiazole] |
